{
  "source": "patent US7910624B1",
  "about": "“Compositions for the treatment of blood disorders” (The Trustees of Boston University, priority 1995, dated 2011)",
  "key": {"[1]": {"system": "γ-globin promoter fragment containing FRE-γ1", "experiment": "Gel mobility shift assay with nuclear extracts of patients' erythroblasts", "design": "species or system human", "details": "nuclear extracts of thalassemic patients on therapy, 21 and 43 hours after", "method": "To gain further information on transcription factors binding to FRE elements, gel mobility shift assays with were carried out with promoter fragments containing FRE-γ1. The 3′ half of the DNA sequence of FRE-γ1 is overlapped with that of the stage-selector element (SSE) which has recently been identified in the γ-globin promoter and may be competitively silencing γ-globin gene expression in the fetal stage. Nuclear extracts were purified from a human erythroleukemia cell line, K562, and from erythroblasts that were isolated from peripheral blood or bone marrow of patients. Nuclear extracts used for gel mobility shift assays were prepared as described (Andrews et al., Nucl. Acids Res. 19:2499-2500, 1991). Oligonucleotides, corresponding to the nucleotide sequence from −39 to −78 of the γ-globin promoter (FIG. 13), were annealed to form double-stranded DNA and 5′-labeled with T4 polynucleotide kinase. Prior to addition of a labeled probe, 5 μg of nuclear extracts were mixed with 500 ng of poly(dA-dT) in 20 μl of a binding buffer (25 mM Hepes, pH 7.5, 50 mM KCl, 12.5 mM MgCl2, 1 mM DTT, 10 mM ZnSO4, 5% (v/v) glycerol, 1% (v/v) NP-40) at room temperature for 30 minutes. After addition of a labeled probe of 5×10^6 cpm, the mixture was incubated for 30 minutes at room temperature. […]"}, "[2]": {"system": "Human mammary carcinoma cells (MCF-7)", "experiment": "Human mammary carcinoma cell viability by FACS", "assay_type": "cell-based", "details": "4 days", "method": "Human mammary carcinoma cells (MCF-7) were cultured alone (controls) and with arginine butyrate or isobutyramide for 4 days. Viability was assayed by FACS after incubation with a fluorescent dye taken up by viable cells (FIG. 6). Growth was decreased by 50% with isobutyramide at 1.0 mM, about 60% with arginine butyrate at 0.5 mM, and greater than 90% with arginine butyrate at 1.0 mM."}, "[3]": {"system": "γ-globin gene promoter and HSS-II region of the locus control region", "experiment": "In vivo footprinting (LM-PCR) of patients' erythroblasts before and during treatment", "design": "species or system human", "method": "To determine whether this increase was due to the transcriptional modulation of the γ-globin genes and, if so, to examine whether protein-DNA interactions of regulatory sequences for γ-globin gene expression have been changed, in vivo footprinting analysis of the γ-globin gene promoter and HSS-II region of the locus control region (LCR) were performed. […] Compared to conventional in vitro footprinting methods, which are ordinarily employed to analyze protein-DNA interactions for promoter regions and fail to disclose tissue-specific binding of nuclear proteins to cis-acting elements, in vivo footprinting technique is able to provide bona fide information on transcription factors binding to cis-acting elements that reflects in vivo situations.\nErythroid cell-rich fractions were prepared from patients' peripheral blood or bone marrow before and during treatment, and were in vivo methylated using DMS. […] All of the footprints were analyzed two or more times to ensure reproducibility.\nIn the γ-globin gene promoter, a DNA fragment extending up to −200 by relative to the transcription start site is sufficient to direct efficient transcription of the γ-globin genes (K. T. McDonagh et al., J. Biol. Chem. 266:11965-74, 1991; M. J. Urich Blood 75:990-99, 1990). […] Erythroblasts from a patient with sickle cell anemia, before and after butyrate treatment were analyzed. […]"}},
  "note": "“Also recorded” adds a separate entry of the source.",
  "data": [
    {"compound": "CCCC(=O)O", "note": "[AB, arginine butyrate]", "values": [
      {"measurement": "protein-DNA binding activity in gel shift", "setting": "[1]", "value": "a new binding activity appeared"},
      {"measurement": "decrease of growth of MCF-7", "setting": "[2]; 0.5 mM", "value": "about 60%"},
      {"measurement": "decrease of growth of MCF-7", "setting": "[2]; 1.0 mM", "value": "greater than 90%"},
      {"measurement": "in vivo footprints of HSS-II", "setting": "[3]; erythroblasts from a treated sickle cell patient", "value": "novel in vivo footprints that were not seen in a pre-treatment sample became apparent"},
      {"measurement": "in vivo footprints over the γ-globin promoter", "setting": "[3]; erythroblasts of treated patients with sickle cell anemia or β-thalassemia", "value": "induces multiple transcription factors which interact with the γ-globin gene promoter; also recorded: degree of protection on G residues in FRE-γ1 consistently increased"}
    ]}
  ]
}
